# Assay results published in patent publication US12708630B2, “Combined therapy of 4′-thio-5-aza-2′-deoxycytidine and Venetoclax” (PINOTBIO, INC., priority 2021, dated 2026).
# Key:
# Experiment in all cases: drug activity profiling cytotoxicity
# Format in all cases: cell-based
# [1] = test system: HT-1080; settings: Homo sapiens; HT-1080 cell line, Sarcoma; read-out: Aza-T-dCyd IC50
# Summary of the method: (§1)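 Aza-T-dCyd cytotoxicity was assessed by drug activity profiling across a panel of 200 cell lines, aimed at identifying a response biomarker.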
# [2] = test system: MEG01; settings: Homo sapiens, MEG-01; MEG01 cell line, CML; read-out: Aza-T-dCyd IC50
# Summary of the method: as §1
# [3] = test system: UM-UC-3; settings: Homo sapiens, UMUC3; UM-UC-3 cell line, Bladder; read-out: Aza-T-dCyd IC50
# Summary of the method: as §1
# [4] = test system: SNB-19; settings: Homo sapiens; SNB-19 cell line, CNS (Glioma); read-out: Aza-T-dCyd IC50
# Summary of the method: as §1
# [5] = test system: HT-1197; settings: Homo sapiens, HT1197; HT-1197 cell line, Bladder; read-out: Aza-T-dCyd IC50
# Summary of the method: as §1
# [6] = test system: SW900; settings: Homo sapiens; SW900 cell line, Lung (NSCLC); read-out: Aza-T-dCyd IC50
# Summary of the method: as §1
# [7] = test system: SK-MEL-3; settings: Homo sapiens, SK-MEL3; SK-MEL-3 cell line, Skin (Melanoma); read-out: Aza-T-dCyd IC50
# Summary of the method: as §1
# [8] = test system: MC116; settings: Homo sapiens; MC116 cell line, B-cell lymphoma; read-out: Aza-T-dCyd IC50
# Summary of the method: as §1
# [9] = test system: A427; settings: Homo sapiens, A-427; A427 cell line, Lung (NSCLC); read-out: Aza-T-dCyd IC50
# Summary of the method: as §1
# [10] = test system: NTERA-2 cl.D1; settings: Homo sapiens; NTERA-2 cl.D1 cell line, Testis; read-out: Aza-T-dCyd IC50
# Summary of the method: as §1
# [11] = test system: PC-3; settings: Homo sapiens; PC-3 cell line, Prostate; read-out: Aza-T-dCyd IC50
# Summary of the method: as §1
# [12] = test system: J82; settings: Homo sapiens; J82 cell line, Bladder; read-out: Aza-T-dCyd IC50
# Summary of the method: as §1
# [13] = test system: ChaGoK1; settings: Homo sapiens, ChaGo-K-1; ChaGoK1 cell line, Lung (NSCLC); read-out: Aza-T-dCyd IC50
# Summary of the method: as §1
# [14] = test system: HT; settings: Homo sapiens; HT cell line, B-cell lymphoma; read-out: Aza-T-dCyd IC50
# Summary of the method: as §1
# [15] = test system: Hs 729; settings: Hs 729 cell line, Sarcoma; read-out: Aza-T-dCyd IC50
# Summary of the method: as §1
# [16] = test system: MS751; settings: MS751 cell line, Female GU (Cervix); read-out: Aza-T-dCyd IC50
# Summary of the method: as §1
# [17] = test system: AU565; settings: Homo sapiens; AU565 cell line, Breast; read-out: Aza-T-dCyd IC50
# Summary of the method: as §1
# [18] = test system: SU-DHL-8; settings: Homo sapiens; SU-DHL-8 cell line, B-cell lymphoma; read-out: Aza-T-dCyd IC50
# Summary of the method: as §1
# [19] = test system: BHT-101; settings: Homo sapiens; BHT-101 cell line, Endocrine (Thyroid); read-out: Aza-T-dCyd IC50
# Summary of the method: as §1
# [20] = test system: D283 Med; settings: Homo sapiens; D283 Med cell line, CNS (Medulloblastoma); read-out: Aza-T-dCyd IC50
# Summary of the method: as §1
# [21] = test system: HuP-T4; settings: Homo sapiens; HuP-T4 cell line, Pancreas; read-out: Aza-T-dCyd IC50
# Summary of the method: as §1
# [22] = test system: OVCAR3; settings: Homo sapiens, OVCAR-3; OVCAR3 cell line, Female GU (Ovary); read-out: Aza-T-dCyd IC50
# Summary of the method: as §1
# [23] = test system: SW872; settings: Homo sapiens; SW872 cell line, Sarcoma; read-out: Aza-T-dCyd IC50
# Summary of the method: as §1
# [24] = test system: L-428; settings: Homo sapiens; L-428 cell line, Hodgkin's lymphoma; read-out: Aza-T-dCyd IC50
# Summary of the method: as §1
# [25] = test system: U-138MG; settings: Homo sapiens, U138-MG; U-138MG cell line, CNS (Glioma); read-out: Aza-T-dCyd IC50
# Summary of the method: as §1
# [26] = test system: T24; settings: Homo sapiens, T-24; T24 cell line, Bladder; read-out: Aza-T-dCyd IC50
# Summary of the method: as §1
# [27] = test system: T47D; settings: Homo sapiens; T47D cell line, Breast; read-out: Aza-T-dCyd IC50
# Summary of the method: as §1
# [28] = test system: Hs 936.T(C1); settings: Hs 936.T(C1) cell line, Skin (Melanoma); read-out: Aza-T-dCyd IC50
# Summary of the method: as §1
# [29] = test system: MOLT-16; settings: Homo sapiens; MOLT-16 cell line, ALL; read-out: Aza-T-dCyd IC50
# Summary of the method: as §1
# [30] = test system: Capan-1; settings: Homo sapiens; Capan-1 cell line, Pancreas; read-out: Aza-T-dCyd IC50
# Summary of the method: as §1
compound,measurement,setting,value
"Nc1ncn([C@H]2CC(O)[C@@H](CO)S2)c(=O)n1 (stereo partly drawn) [Aza-T-dCyd, 4′-thio-5-aza-2′-deoxycytidine]",IC50,[1],120 nM
same,IC50,[2],1070 nM
same,IC50,[3],289 nM
same,IC50,[4],170 nM
same,IC50,[5],7130 nM
same,IC50,[6],1980 nM
same,IC50,[7],522 nM
same,IC50,[8],29.7 nM
same,IC50,[9],77.5 nM
same,IC50,[10],42.7 nM
same,IC50,[11],441 nM
same,IC50,[12],1980 nM
same,IC50,[13],3410 nM
same,IC50,[14],1030 nM
same,IC50,[15],> 10000 nM
same,IC50,[16],> 10000 nM
same,IC50,[17],> 10000 nM
same,IC50,[18],70.6 nM
same,IC50,[19],235 nM
same,IC50,[20],68.8 nM
same,IC50,[21],321 nM
same,IC50,[22],3440 nM
same,IC50,[23],730 nM
same,IC50,[24],365 nM
same,IC50,[25],> 10000 nM
same,IC50,[26],1530 nM
same,IC50,[27],> 10000 nM
same,IC50,[28],398 nM
same,IC50,[29],18.2 nM
same,IC50,[30],3320 nM
